In patent US20200046619A1, “Deodorizing Composition Comprising Zinc Neodecanoate” (GIVAUDAN SA, priority 2016, published 2020):

Legend:
[1] = Solubility test of zinc salts in model aerosol base formulation; format: physicochemical; details: 4% zinc salt, 12% cyclomethicone, 84% pentane; agitated several hours at room temperature, stood overnight
Text: The solubility of several zinc salts was explored using the following model aerosol base formulation: • 4% zinc salt • 12% cyclomethicone • 84% pentane
(Pentane was used as a surrogate for isobutane/propane mix as it is easier to handle in a laboratory.)
Each salt and aerosol formulation was placed in a sealed glass vial that was agitated for several hours at room temperature. The resulting suspensions/solutions were allowed to stand overnight and any remaining solid matter present was noted.

[2] = White marks: visible solid residue on black cloth after aerosol spraying; format: physicochemical; details: approximately 3 g aerosol (4% zinc neodecanoate, 12% cyclomethicone, 84% propellant) dispensed; compared with zinc ricinoleate and aluminium chlorohydrate aerosols
Method: Aerosols were prepared using the following three test formulations, respectively: • 4% zinc neodecanoate, 12% cyclomethicone, 84% propellant • 4% zinc ricinoleate, 12% cyclomethicone, 84% propellant • 10% aluminium chlorohydrate, 0.8% disteardimonium hectorite, 12% cyclomethicone, 76.2% propellant (propellant=isobutane/propane mix)
Several card templates were prepared where a large X-shaped hole was present in each template. Each template was then placed over a black piece of cloth. The aerosols were shaken well, and then approximately 3 g of one of the three aerosols was dispensed over each template hole. Several minutes were allowed for any propellant to evaporate and the presence of any visible solid residues was noted.

[3] = test system: subject's axilla malodour; test: Sensory test comparing zinc neodecanoate and zinc ricinoleate: perceived malodour intensity of axillae rated by trained panel; format: in vivo, human; details: for perceived malodour intensity: 0-100 line scale, 24 hours after application of 1.0 g aerosol (4% zinc salt, 12% cyclomethicone, 84% propellant) to axilla, 10 male subjects
Method: Aerosols were prepared using the following two test formulations, respectively: • 4% zinc neodecanoate, 12% cyclomethicone, 84% propellant • 4% zinc ricinoleate, 12% cyclomethicone, 84% propellant (propellant=isobutane/propane mix)
5 days prior to testing, the male subjects substituted their normal body wash with an unperfumed product (Sanex 0% Bodywash) and were asked to only use a specific deodorant supplied (Lynx Attract for Him).
On the morning before the test, the male subjects were asked to shower using an unperfumed shower gel provided and not use any antiperspirant product or apply any other fragranced products.
Subjects reported to a panel suite in the morning in two groups for test product application.
The administrator applied 1.0 g of each product to each subject's axilla. Each subject wore both of the test formulations (one on each axilla region). The manner in which each test formulation was applied (left or right axilla) was randomised. Each of a subject's axilla was then coded with a random code number.
The subjects were asked not to shower until after the test had been completed the next day. The subjects were also provided with a list of rules, by which they had to abide for the duration of the test. The rules included no swimming and no gym activity between test formulation application and assessment.
The subjects' axillae were thereafter tested by sensory panellists. The members of the sensory panels had been selected on a basis of their olfactory sensory acuity and had thereafter received training for a period of 4-6 months. […]
The sensory panellists were asked to rate the perceived malodour intensity for each of the subject's axilla using a 0-100 line scale. The order of samples assessed was pre-determined using a balanced randomisation. The axillae were assessed in a sequential monadic way. […]
The subjects were separated into two groups to be assessed by the panellists and each group was assessed by 22 panellists.
The data was analysed using an analysis of variance and multiple comparison test with a confidence level of 95%.

Substance | remaining solid matter present (solubility) [1] | visible solid residue on black cloth [2] | perceived malodour intensity [3] | malodour intensity compared with underarms treated with zinc ricinoleate ([3]; analysis of variance and multiple comparison test, confidence level 95%, 24 hours after application)
zinc neodecanoate | without any solid present | did not leave a powdered residue | 12.1 (+/−0.8) | significantly lower malodour intensity
zinc ricinoleate [reference compound] |  |  | 14.0 (+/−0.8) | 
